The results in this text go back to ChEMBL document CHEMBL5325484, “Quinolinetrione-tacrine hybrids as multi-target-directed ligands against Alzheimer's disease” (Bioorg Med Chem, 2023).

Data set [1] has as its system HepG2. The experiment in a line: Cytotoxicity against human HepG2 cells assessed as reduction in cell viability at 10 uM incubated for 24 hrs by MTT assay relative to control. The class given is toxicity, cell-based. The following applies: hepg2, 24 h.
The next data set addresses Acetylcholinesterase (Homo sapiens, UniProt P22303). The data set can be described thus: Inhibition of recombinant human AChE using acetylthiocholine iodide as substrate preincubated with compound for 20 mins followed by substrate addition and measured after 240 sec by spectrophotometer based Ellman's method.
The test system of data set [2] is HepG2. The data set can be described thus: Cytotoxicity against human HepG2 cells assessed as reduction in cell viability at 100 uM incubated for 24 hrs by MTT assay. The class given is toxicity, cell-based. The following applies: hepg2, 24 h.
The subject of data set [3] is HepG2. The experiment in a line: Cytotoxicity against human HepG2 cells assessed as reduction in cell viability at 1 uM incubated for 24 hrs by MTT assay. The class given is toxicity, cell-based. The following applies: hepg2, 24 h.
In the next data set the target is Cholinesterase (Homo sapiens, UniProt P06276). The experiment in a line: Inhibition of human serum BChE using butyrylthiocholine iodide as substrate preincubated with compound for 20 mins followed by substrate addition and measured after 240 sec by spectrophotometer based Ellman's method. Format: cell-free.
Sequence of Cholinesterase (P06276 whole entry): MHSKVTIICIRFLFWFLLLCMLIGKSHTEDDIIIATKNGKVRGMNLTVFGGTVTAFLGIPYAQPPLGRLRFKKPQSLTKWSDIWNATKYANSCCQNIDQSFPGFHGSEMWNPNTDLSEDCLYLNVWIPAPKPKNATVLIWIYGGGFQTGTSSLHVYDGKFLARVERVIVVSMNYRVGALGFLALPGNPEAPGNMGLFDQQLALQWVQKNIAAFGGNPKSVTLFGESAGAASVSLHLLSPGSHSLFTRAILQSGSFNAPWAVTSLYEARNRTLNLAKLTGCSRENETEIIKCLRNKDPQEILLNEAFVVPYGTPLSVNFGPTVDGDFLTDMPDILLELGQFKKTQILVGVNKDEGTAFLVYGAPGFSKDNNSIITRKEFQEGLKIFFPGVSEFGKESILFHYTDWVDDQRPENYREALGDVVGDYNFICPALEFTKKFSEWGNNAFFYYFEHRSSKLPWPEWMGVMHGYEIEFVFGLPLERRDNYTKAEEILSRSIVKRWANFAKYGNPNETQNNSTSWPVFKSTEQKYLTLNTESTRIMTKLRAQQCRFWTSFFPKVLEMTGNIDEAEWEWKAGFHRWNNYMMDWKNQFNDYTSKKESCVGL

Sequence of Acetylcholinesterase (P22303 whole entry): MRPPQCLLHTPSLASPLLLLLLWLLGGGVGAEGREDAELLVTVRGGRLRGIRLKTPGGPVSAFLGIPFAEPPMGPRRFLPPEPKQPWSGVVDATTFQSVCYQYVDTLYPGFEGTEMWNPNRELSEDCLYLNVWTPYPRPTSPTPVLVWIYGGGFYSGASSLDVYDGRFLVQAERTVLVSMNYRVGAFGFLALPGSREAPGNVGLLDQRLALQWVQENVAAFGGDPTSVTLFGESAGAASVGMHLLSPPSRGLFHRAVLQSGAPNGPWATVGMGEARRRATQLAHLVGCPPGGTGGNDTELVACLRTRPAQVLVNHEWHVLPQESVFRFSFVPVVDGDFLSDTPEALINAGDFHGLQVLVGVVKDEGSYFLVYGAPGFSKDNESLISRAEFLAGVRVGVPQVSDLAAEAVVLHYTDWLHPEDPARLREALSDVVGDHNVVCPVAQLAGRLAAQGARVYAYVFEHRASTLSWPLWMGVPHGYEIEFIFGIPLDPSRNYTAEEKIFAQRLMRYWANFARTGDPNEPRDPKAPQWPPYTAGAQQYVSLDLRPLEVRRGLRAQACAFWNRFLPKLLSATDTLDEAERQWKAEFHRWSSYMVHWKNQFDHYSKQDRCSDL

Take `Cc1cc(=O)[nH]c2c1C(=O)C(NCCCCNc1c3c(nc4ccccc14)CCCC3)=CC2=O`: the results for the Activity in the data set on HepG2 [1], in the data set on HepG2 [2] and in the data set on HepG2 [3] were 14%, “Toxic” and “Non-Toxic”, respectively. Besides, the results for the concentration for half-maximal inhibition (IC50) at Acetylcholinesterase and on Cholinesterase were 58.3 nM and 109 nM, respectively.

For `Cc1cc(=O)[nH]c2c1C(=O)C(NCCCNc1c3c(nc4cc(Cl)ccc14)CCCC3)=CC2=O`, the results for the Activity in the data set with HepG2 [1], in the data set on HepG2 [2] and in the data set with HepG2 [3] were 50%, “Toxic” and “Non-Toxic”, respectively. Further, the half-maximal inhibitory concentration (IC50) came out at 11.1 nM at Acetylcholinesterase and 1340 nM on Cholinesterase.

Turning to `Cc1cc(=O)[nH]c2c1C(=O)C(NCCNc1c3c(nc4cc(Cl)ccc14)CCCC3)=CC2=O`, the Activity in the data set on HepG2 [1] was 50%; in the data set with HepG2 [2] it was “Toxic”; in the data set on HepG2 [3], “Non-Toxic”. The IC50 was 121 nM on Acetylcholinesterase and 2100 nM on Cholinesterase.

Take `Cc1cc(=O)[nH]c2c1C(=O)C(NCCCCNc1c3c(nc4cc(Cl)ccc14)CCCC3)=CC2=O`: the Activity in the data set with HepG2 [1] is reported as 50%; in the data set on HepG2 [2], “Toxic”; with HepG2 [3], “Non-Toxic”. In addition, the half-maximal inhibitory concentration (IC50) worked out at 5.58 nM at Acetylcholinesterase and 2830 nM on Cholinesterase.

Regarding `Cc1cc(=O)[nH]c2c1C(=O)C(NCCNc1c3c(nc4ccccc14)CCCC3)=CC2=O`, the Activity in the data set with HepG2 [1] is recorded as 12%; in the data set on HepG2 [2], “Toxic”; in the data set on HepG2 [3], “Non-Toxic”. In addition, the values for the half-inhibitory concentration (IC50) at Acetylcholinesterase and at Cholinesterase were 667 nM and 182 nM, respectively.
